Experiments:
[1] = test system: intraarticular opioid receptors; assay: Intraarticular injection after arthroscopic surgery of the knee; format: in vivo, human; conditions: injected in the knee after arthroscopic surgery
[2] = test system: patients who had acute shingles; assay: Analgesia for shingles, morphine spray; format: in vivo, human
Text: Other patients who were helped were those who had acute shingles which would produce excruciating pain on the chest.

[3] = test system: children undergoing tonsillectomy; assay: Analgesia for postsurgical pain after tonsillectomy, morphine spray on tonsil beds; format: in vivo, human; conditions: spray in saline on the tonsil beds after surgery; able to swallow and eat ice cream same day
Text: The morphine spray in saline was used on the tonsil beds after surgery in children undergoing tonsillectomy.

[4] = test system: patients who had burns from radiation therapy
[5] = test system: patients who had undergone failed back operations; conditions: 1-3 mg on the back, ultrasound, massage, heat, Aquaphor vehicle; cited from earlier work
[6] = after two or three days of using the spray

Structure (SMILES) | Duration of relief after surgery [1] [h] | Healing [2, 6] | Post-herpetic neuralgia [2, 6] | Pain of acute shingles ([2]; spray, typically three times a day) | Pain after surgery [3] | Relief of pain, patients with pain on the tongue or in the mouth due to radiation burns ([4]; compared with skin radiation burn patients) | Time able to sit to do exercises after topical application ([4]; one patient with severe burns on the buttocks, could not sit before) | Relief of pain, one patient with severe burns on the buttocks (prostate cancer) ([4]; spray) | Start of relief after topical application ([4]; two or three mg diluted with saline, sprayed) [min] | Relief of pain ([4]; two or three mg diluted with saline, sprayed over inflamed area, all patients treated) | Pain relief [5]
CCCCN1CCCCC1C(=O)Nc1c(C)cccc1C (centres unmarked) [Marcaine] | ≤ 12 | – | – | – | – | – | – | – | – | – | –
CN1CC[C@]23c4c5ccc(O)c4O[C@H]2[C@@H](O)C=C[C@H]3[C@H]1C5.O=S(=O)(O)O [Morphine, morphine sulfate] | – | healed faster | without any post-herpetic neuralgia | significantly reduced | no pain after surgery | same experience | an hour and a half | excellent relief of the pain | 10 to 15 | excellent relief of pain | Some improvement in pain relief
